Results on 33 compounds are retold here after patent US9676714B2, “Sulfonylindole derivatives and method for preparing the same” (Daewoong Pharmaceutical Co., Ltd., priority 2013, dated 2017).

Structures can show the parent of a compound that is named as a salt.

The target in the assay is T1, proton pump (H+/K+-ATPase) (Sus scrofa, UniProt P19156).
T1 construct: Gastric vesicles were prepared from hog stomach via centrifugal separation; from tissue; host or cells: hog stomach (gastric vesicles, method of Rabon et al. 1988)
T1 sequence (P19156 whole entry): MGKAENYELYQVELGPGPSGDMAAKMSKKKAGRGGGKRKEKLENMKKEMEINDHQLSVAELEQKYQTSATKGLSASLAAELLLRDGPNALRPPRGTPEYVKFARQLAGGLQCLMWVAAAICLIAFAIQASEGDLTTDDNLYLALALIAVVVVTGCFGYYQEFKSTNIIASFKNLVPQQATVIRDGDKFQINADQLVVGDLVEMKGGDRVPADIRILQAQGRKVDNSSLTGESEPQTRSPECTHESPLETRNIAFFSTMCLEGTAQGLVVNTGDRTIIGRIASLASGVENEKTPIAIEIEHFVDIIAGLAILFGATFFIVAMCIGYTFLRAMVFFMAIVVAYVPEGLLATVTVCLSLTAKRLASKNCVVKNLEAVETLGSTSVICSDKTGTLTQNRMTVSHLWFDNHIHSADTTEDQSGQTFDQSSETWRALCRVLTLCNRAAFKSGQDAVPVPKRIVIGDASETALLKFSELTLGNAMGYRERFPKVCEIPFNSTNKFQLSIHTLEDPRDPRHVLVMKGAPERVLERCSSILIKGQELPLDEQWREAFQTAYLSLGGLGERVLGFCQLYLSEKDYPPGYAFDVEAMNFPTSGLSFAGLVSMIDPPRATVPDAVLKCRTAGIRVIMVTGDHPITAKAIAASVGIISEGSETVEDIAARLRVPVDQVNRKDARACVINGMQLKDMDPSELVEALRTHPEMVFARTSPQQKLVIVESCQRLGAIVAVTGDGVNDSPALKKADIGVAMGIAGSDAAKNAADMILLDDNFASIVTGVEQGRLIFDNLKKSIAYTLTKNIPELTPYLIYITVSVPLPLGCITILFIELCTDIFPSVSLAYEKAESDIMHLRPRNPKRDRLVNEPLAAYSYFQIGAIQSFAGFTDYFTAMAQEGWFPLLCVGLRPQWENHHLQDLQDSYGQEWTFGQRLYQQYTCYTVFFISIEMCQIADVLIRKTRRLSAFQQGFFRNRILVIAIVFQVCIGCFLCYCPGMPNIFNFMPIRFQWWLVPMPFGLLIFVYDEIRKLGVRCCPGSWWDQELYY
T1 sequence (P18434 whole entry partner): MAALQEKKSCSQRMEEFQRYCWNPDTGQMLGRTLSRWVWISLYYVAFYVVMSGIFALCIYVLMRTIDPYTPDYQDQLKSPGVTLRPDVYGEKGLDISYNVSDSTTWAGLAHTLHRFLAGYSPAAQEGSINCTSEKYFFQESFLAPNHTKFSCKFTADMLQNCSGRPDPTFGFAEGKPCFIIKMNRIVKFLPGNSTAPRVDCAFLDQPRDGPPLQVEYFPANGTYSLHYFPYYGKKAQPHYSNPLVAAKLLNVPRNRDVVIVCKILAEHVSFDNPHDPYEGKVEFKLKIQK
In words: Measurement of inhibitory effects on proton pump (H+/K+-ATPase) activities. The assay is classed as biochemical. As to conditions: hog gastric vesicles, K+-specific H+/K+-ATPase activity, Tris-HCl buffer pH 7.4, 37° C. for 40 minutes, malachite green Pi readout. An outline of the steps: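 Hog gastric vesicles in 60 mmol/l Tris-HCl pH 7.4 with 0.5% DMSO were treated with compounds at room temperature; reaction was started with 10 μl of 10 mmol/l ATP stock. Released Pi was read at 570 nm, K+-specific activity taken as the ±K+ difference. IC50 from 4-parameter logistic fit.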
By IC50 is commonly meant the concentration needed to halve the response being measured. Read a high IC50 as weaker potency. In turn, `CNCc1cn(S(=O)(=O)c2ccccc2F)c2cc(Nc3ccc(C)cc3F)ccc12` [Example 224, N-(2-fluoro-4-methylphenyl)-1-((2-fluorophenyl)sulfonyl)-3-((methylamino)methyl)-1H-indol-6-amine hydrochloride] showed an IC50 of 3300 nM. The compound `CNCc1cn(S(=O)(=O)c2ccccc2Cl)c2cc(Nc3ccc(C)cc3F)ccc12` [Example 225, 1-((2-chlorophenyl)sulfonyl)-N-(2-fluoro-4-methylphenyl)-3-((methylamino)methyl)-1H-indol-6-amine hydrochloride] yielded an IC50 of 2060 nM. As for `CNCc1cn(S(=O)(=O)c2cccc(C#N)c2)c2cc(Nc3ccc(C)cc3F)ccc12` [Example 227, 3-((6-((2-fluoro-4-methylphenyl)amino)-3-((methylamino)methyl)-1H-indol-1-yl)sulfonyl)benzonitrile hydrochloride], the IC50 came to 6490 nM. For `CNCc1cn(S(=O)(=O)c2cccc(Br)c2)c2cc(Nc3ccc(C)cc3F)ccc12` [Example 228, 1-((3-bromophenyl)sulfonyl)-N-(2-fluoro-4-methylphenyl)-3-((methylamino)methyl)-1H-indol-6-amine hydrochloride] the value was 900 nM; for `CNCc1cn(S(=O)(=O)c2ccc(C)cc2)c2cc(Nc3ccc(C)cc3F)ccc12` [Example 229, N-(2-fluoro-4-methylphenyl)-3-((methylamino)methyl)-1-tosyl-1H-indol-6-amine hydrochloride], 1110 nM; for `CNCc1cn(S(=O)(=O)c2ccc(Cl)cc2)c2cc(Nc3ccc(C)cc3F)ccc12` [Example 230, 1-((4-chlorophenyl)sulfonyl)-N-(2-fluoro-4-methylphenyl)-3-((methylamino)methyl)-1H-indol-6-amine hydrochloride], 910 nM. Then `CNCc1cn(S(=O)(=O)c2ccc(C(C)(C)C)cc2)c2cc(Nc3ccc(C)cc3F)ccc12` [Example 231, 1-((4-(tert-butyl)phenyl)sulfonyl)-N-(2-fluoro-4-methylphenyl)-3-((methylamino)methyl)-1H-indol-6-amine hydrochloride], with 2620 nM; and `CNCc1cn(S(=O)(=O)c2ccc(-c3ccccc3)cc2)c2cc(Nc3ccc(C)cc3F)ccc12` [Example 232, 1-([1,1′-biphenyl]-4-ylsulfonyl)-N-(2-fluoro-4-methylphenyl)-3-((methylamino)methyl)-1H-indol-6-amine hydrochloride], with 2150 nM; and `CNCc1cn(S(=O)(=O)c2cccc3ccccc23)c2cc(Nc3ccc(C)cc3F)ccc12` [Example 233, N-(2-fluoro-4-methylphenyl)-3-((methylamino)methyl)-1-(naphthalen-1-ylsulfonyl)-1H-indol-6-amine hydrochloride], with 2850 nM. Then `CNCc1cn(S(=O)(=O)c2cccc(Cl)c2Cl)c2cc(Nc3ccc(C)cc3F)ccc12` [Example 234, 1-((2,3-dichlorophenyl)sulfonyl)-N-(2-fluoro-4-methylphenyl)-3-((methylamino)methyl)-1H-indol-6-amine hydrochloride], with 1470 nM; and `CNCc1cn(S(=O)(=O)c2ccc(Cl)cc2Cl)c2cc(Nc3ccc(C)cc3F)ccc12` [Example 235, 1-((2,4-dichlorophenyl)sulfonyl)-N-(2-fluoro-4-methylphenyl)-3-((methylamino)methyl)-1H-indol-6-amine hydrochloride], with 2890 nM. With `CNCc1cn(S(=O)(=O)c2cc(C)ccc2C)c2cc(Nc3ccc(C)cc3F)ccc12` [Example 236, 1-((2,5-dimethylphenyl)sulfonyl)-N-(2-fluoro-4-methylphenyl)-3-((methylamino)methyl)-1H-indol-6-amine hydrochloride], the IC50 came out at 2040 nM. As for `CNCc1cn(S(=O)(=O)c2ccc(F)c(F)c2)c2cc(Nc3ccc(C)cc3F)ccc12` [Example 237, 1-((3,4-difluorophenyl)sulfonyl)-N-(2-fluoro-4-methylphenyl)-3-((methylamino)methyl)-1H-indol-6-amine hydrochloride], the IC50 was 990 nM. Turning to `CNCc1cn(S(=O)(=O)c2ccc(Cl)c(Cl)c2)c2cc(Nc3ccc(C)cc3F)ccc12` [Example 238, 1-((3,4-dichlorophenyl)sulfonyl)-N-(2-fluoro-4-methylphenyl)-3-((methylamino)methyl)-1H-indol-6-amine hydrochloride], the IC50 was 2560 nM. For `CNCc1cn(S(=O)(=O)c2cc(C)cc(C)c2)c2cc(Nc3ccc(C)cc3F)ccc12` [Example 239, 1-((3,5-dimethylphenyl)sulfonyl)-N-(2-fluoro-4-methylphenyl)-3-((methylamino)methyl)-1H-indol-6-amine hydrochloride] the value was 1750 nM; for `CNCc1cn(S(=O)(=O)c2ccc(Cl)c(Cl)c2Cl)c2cc(Nc3ccc(C)cc3F)ccc12` [Example 240, N-(2-fluoro-4-methylphenyl)-3-((methylamino)methyl)-1-((2,3,4-trichlorophenyl)sulfonyl)-1H-indol-6-amine hydrochloride], 1670 nM. For `CNCc1cn(S(=O)(=O)c2cncc(Br)c2)c2cc(Nc3ccc(C)cc3F)ccc12` [Example 241, 1-((5-bromopyridin-3-yl)sulfonyl)-N-(2-fluoro-4-methylphenyl)-3-((methylamino)methyl)-1H-indol-6-amine hydrochloride] the value was 2190 nM; for `CNCc1cn(S(=O)(=O)c2ccc(OC)nc2)c2cc(Nc3ccc(C)cc3F)ccc12` [Example 242, N-(2-fluoro-4-methylphenyl)-1-((6-methoxypyridin-3-yl)sulfonyl)-3-((methylamino)methyl)-1H-indol-6-amine hydrochloride], 3850 nM. For the compound `CNCc1cn(S(=O)(=O)c2cccnc2)c2cc(-c3ccccc3)ccc12` [Example 243, N-methyl-1-(6-phenyl-1-(pyridin-3-ylsulfonyl)-1H-indol-3-yl)methanamine], the IC50 was 7140 nM. For `CNCc1cn(S(=O)(=O)c2cccnc2)c2cc(-c3cccc(Cl)c3)ccc12` [Example 244, 1-(6-(3-chlorophenyl)-1-(pyridin-3-ylsulfonyl)-1H-indol-3-yl)-N-methylmethanamine] the value was 2440 nM.

The compound `CNCc1cn(S(=O)(=O)c2cccnc2)c2cc(-c3cccc(NC(C)=O)c3)ccc12` [Example 245, N-(3-(3-((methylamino)methyl)-1-(pyridin-3-ylsulfonyl)-1H-indol-6-yl)phenyl)acetamide] registered a 50% inhibitory concentration (IC50) of 12900 nM. Then `CNCc1cn(S(=O)(=O)c2cccnc2)c2cc(-c3ccc(N)cc3)ccc12` [Example 246, 4-(3-((methylamino)methyl)-1-(pyridin-3-ylsulfonyl)-1H-indol-6-yl)aniline], with 530 nM; and `CNCc1cn(S(=O)(=O)c2cccnc2)c2cc(-c3ccc(-c4ccccc4)cc3)ccc12` [Example 247, 1-(6-([1,1′-biphenyl]-4-yl)-1-(pyridin-3-ylsulfonyl)-1H-indol-3-yl)-N-methylmethanamine], with 4150 nM. In the case of `CNCc1cn(S(=O)(=O)c2cccnc2)c2cc(-c3ccc(OC)nc3)ccc12` [Example 248, 1-(6-(6-methoxypyridin-3-yl)-1-(pyridin-3-ylsulfonyl)-1H-indol-3-yl)-N-methylmethanamine], half-maximal inhibition (IC50) was put at 20000 nM. Then `CNCc1cn(S(=O)(=O)c2cccnc2)c2cc(-c3cnn(C)c3)ccc12` [Example 249, N-methyl-1-(6-(1-methyl-1H-pyrazol-4-yl)-1-(pyridin-3-ylsulfonyl)-1H-indol-3-yl)methanamine], with 50000 nM. Compound `CNCc1cn(S(=O)(=O)c2cccnc2)c2cc(-c3ccnn3C)ccc12` [Example 250, N-methyl-1-(6-(1-methyl-1H-pyrazol-5-yl)-1-(pyridin-3-ylsulfonyl)-1H-indol-3-yl)methanamine] had an IC50 of 40000 nM. Then `CNCc1cn(S(=O)(=O)c2cccnc2)c2cc(-c3ccc(OC)cc3)ccc12` [Example 251, 1-(6-(4-methoxyphenyl)-1-(pyridin-3-ylsulfonyl)-1H-indol-3-yl)-N-methylmethanamine hydrochloride], with 2600 nM.

On to `CNCc1cn(S(=O)(=O)c2cccnc2)c2cc(-c3ccc(C)cc3F)ccc12` [Example 252, 1-(6-(2-fluoro-4-methylphenyl)-1-(pyridin-3-ylsulfonyl)-1H-indol-3-yl)-N-methylmethanamine hydrochloride], for which the midpoint of inhibition, the IC50, lay at 1000 nM.

For `CNCc1cn(S(=O)(=O)c2cccnc2)c2cc(-c3ccc(C)cc3Cl)ccc12` [Example 253, 1-(6-(2-chloro-4-methylphenyl)-1-(pyridin-3-ylsulfonyl)-1H-indol-3-yl)-N-methylmethanamine hydrochloride], it took 490 nM to reach half-maximal inhibition (IC50). Then `CNCc1cn(S(=O)(=O)c2cccnc2)c2cc(-c3cccnc3C(F)(F)F)ccc12` [Example 254, N-methyl-1-(1-(pyridin-3-ylsulfonyl)-6-(2-(trifluoromethyl)pyridin-3-yl)-1H-indol-3-yl)methanamine hydrochloride], with 9150 nM; and `CNCc1cn(S(=O)(=O)c2cccnc2)c2cc(-c3ccc(F)nc3)ccc12` [Example 255, 1-(6-(6-fluoropyridin-3-yl)-1-(pyridin-3-ylsulfonyl)-1H-indol-3-yl)-N-methylmethanamine hydrochloride], with 11700 nM. For `CNCc1cn(S(=O)(=O)c2cccnc2)c2cc(-c3ccnc(F)c3)ccc12` [Example 256, 1-(6-(2-fluoropyridin-4-yl)-1-(pyridin-3-ylsulfonyl)-1H-indol-3-yl)-N-methylmethanamine hydrochloride] the value was 20000 nM. `CNCc1cn(S(=O)(=O)c2cccnc2)c2cc(-c3cnc(F)c(C)c3)ccc12` [Example 257, 1-(6-(6-fluoro-5-methylpyridin-3-yl)-1-(pyridin-3-ylsulfonyl)-1H-indol-3-yl)-N-methylmethanamine hydrochloride] displayed an IC50 of 14200 nM.
